The record followed here is ChEMBL document CHEMBL1201862, “PubChem BioAssay data set” (2004).

Among the test systems are CAKI-1; COLO 205; EKVX; HCT-15; HOP-92; IGROV-1; K562; NCI-H460; OVCAR-8; SF-268; SF-539; SK-MEL-28; SK-OV-3; SNB-75; U-251; UACC-257; UACC-62; UO-31; RXF 393; SK-MEL-5.
Holding throughout (experiment): NCI-60 cell line screen, 48 h

SMILES strings stand for the structures.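 Step 1: Grow cells in 96-well plates. Step 2: Expose to compound for 48 hours at 5 concentrations. Step 3: Interpolate endpoints linearly; if unreached, use highest concentration. At the GI50, growth is halved.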 Activity calls are given as the source filed them. Rule as the data show it: active = GI50 up to about 1.1 µM and inactive = higher.

`CCOC(=O)N1CCN(Cc2cc(=O)n3cc(C)ccc3n2)CC1`: the GI50 is > 100 µM (inactive) with CAKI-1; > 100 µM (inactive) in the assay on COLO 205; > 100 µM (inactive) in the assay with EKVX; more than 100 µM with HCT-15; > 100 µM (inactive) with HOP-92; > 100 µM (inactive) in the assay with IGROV-1. Besides, the GI50 with K562, in the assay with NCI-H460, in the assay on OVCAR-8, in the assay with SF-268, in the assay on SF-539 and in the assay with SK-MEL-28 was > 100 µM (inactive) in each case. Also, the GI50 with SK-OV-3, in the assay with SNB-75, in the assay with U-251, with UACC-257, in the assay with UACC-62 and in the assay on UO-31 was > 100 µM (inactive) throughout.

On to `Nc1nc(Cl)cc(NCCCNc2cc(Cl)nc(N)n2)n1`, for which the GI50 is > 100 µM (inactive) with COLO 205; > 100 µM (inactive) with EKVX; more than 100 µM in the assay with HCT-15; > 100 µM (inactive) in the assay with HOP-92; > 100 µM (inactive) in the assay with IGROV-1; > 100 µM (inactive) in the assay with K562. In addition, the GI50 in the assay with NCI-H460, in the assay on OVCAR-8, with RXF 393, with SF-268, with SF-539 and in the assay on SK-MEL-28 was > 100 µM (inactive) each time. The GI50 in the assay on SK-MEL-5, in the assay with SK-OV-3, in the assay with SNB-75, in the assay on U-251, in the assay with UACC-257 and with UACC-62 was > 100 µM (inactive) throughout. In addition, the GI50 with UO-31 was > 100 µM (inactive).

Regarding `Cc1cc2c(=O)c3ccccc3[nH]c2c(C(N)=O)c1C`, the GI50 in the assay on CAKI-1 is > 100 µM (inactive); with COLO 205, > 100 µM (inactive); in the assay on EKVX, > 100 µM (inactive); in the assay with HCT-15, more than 100 µM; in the assay with IGROV-1, > 100 µM (inactive); in the assay with K562, > 100 µM (inactive). The GI50 in the assay with NCI-H460, with OVCAR-8, in the assay with RXF 393, with SF-268, in the assay with SF-539 and in the assay with SK-MEL-28 was > 100 µM (inactive) throughout. The GI50 in the assay on SK-MEL-5, in the assay on SK-OV-3, in the assay with SNB-75, in the assay with U-251, in the assay with UACC-257 and with UACC-62 was > 100 µM (inactive) throughout. The GI50 in the assay with UO-31 was > 100 µM (inactive).

For the compound `CC1(C)C(=O)OC(n2cc(F)c(=O)[nH]c2=O)C1=O` (stereo not drawn), the GI50 in the assay with COLO 205 was > 100 µM (inactive); with EKVX it was 39.1 µM (inactive); in the assay on HCT-15, more than 100 µM; with HOP-92, 26.5 µM (inactive); with K562 it was > 100 µM (inactive); in the assay on NCI-H460 it was 55.1 µM (inactive). Besides, the GI50 is > 100 µM (inactive) in the assay with OVCAR-8; > 100 µM (inactive) in the assay on RXF 393; > 100 µM (inactive) with SF-268; 43.9 µM (inactive) in the assay with SF-539; > 100 µM (inactive) in the assay with SK-MEL-28; > 100 µM (inactive) with SK-OV-3. Also, the GI50 with SNB-75, with U-251, in the assay with UACC-257, with UACC-62 and with UO-31 was > 100 µM (inactive) throughout.

`C#CCCCCC#Cc1ccccc1C(=O)OC`: the GI50 in the assay on COLO 205 was > 100 µM (inactive); in the assay with EKVX, 85.1 µM (inactive); in the assay with HCT-15, 63.8 µM; in the assay on HOP-92, 24.9 µM (inactive); with IGROV-1, 89.3 µM (inactive); with K562, 9.93 µM (inactive). Moreover, the GI50 in the assay on NCI-H460 is > 100 µM (inactive); with OVCAR-8, 15.5 µM (inactive); in the assay on RXF 393, 21.4 µM (inactive); with SF-268 it was 21 µM (inactive); in the assay with SF-539 it was > 100 µM (inactive); in the assay with SK-MEL-28, 25.8 µM (inactive). Also, the GI50 in the assay with SK-MEL-5 was 58.6 µM (inactive); with SK-OV-3, > 100 µM (inactive); with SNB-75 it was 20.6 µM (inactive); with U-251 it was 65.6 µM (inactive); in the assay with UACC-257 it was 71.8 µM (inactive); in the assay with UACC-62, 32.7 µM (inactive). Also, in the assay with UO-31, the GI50 is 40.5 µM (inactive).

Consider `COc1ccc(/C=C/C(=O)C(C)(C)C)cc1OC`, for which the GI50 in the assay with CAKI-1 was 78 µM (inactive); in the assay on COLO 205 it was > 100 µM (inactive); with EKVX it was > 100 µM (inactive); with HCT-15, 38.5 µM; with IGROV-1 it was > 100 µM (inactive); with K562, 36.7 µM (inactive). In addition, the GI50 in the assay with NCI-H460 is > 100 µM (inactive); in the assay with OVCAR-8, > 100 µM (inactive); with SF-268 it was 78.2 µM (inactive); with SK-MEL-28 it was 74.6 µM (inactive); with SK-MEL-5, 54.1 µM (inactive); in the assay on SK-OV-3 it was 76.2 µM (inactive). Moreover, the GI50 in the assay on SNB-75 was 34.4 µM (inactive); in the assay on U-251, > 100 µM (inactive); in the assay on UACC-257, 63.5 µM (inactive); in the assay with UACC-62, 52.6 µM (inactive); with UO-31, > 100 µM (inactive).

`Cc1ccc2c(O)cc(-c3ccc(F)cc3)nc2n1`: the GI50 in the assay with CAKI-1 is 42 µM (inactive); in the assay on COLO 205, 17.2 µM (inactive); in the assay on EKVX, 28.7 µM (inactive); in the assay with HCT-15 it was 18.5 µM; in the assay on HOP-92, 19.7 µM (inactive); in the assay with IGROV-1, 25.7 µM (inactive). Also, the GI50 is 22 µM (inactive) in the assay with K562; 51.1 µM (inactive) in the assay on OVCAR-8; 52.7 µM (inactive) in the assay on SF-268; 42.5 µM (inactive) with SF-539; 49 µM (inactive) in the assay with SK-MEL-28; 40.2 µM (inactive) in the assay on SK-OV-3. The GI50 with SNB-75 was 14.1 µM (inactive); in the assay with UACC-257 it was 34.1 µM (inactive); with UACC-62 it was 24.1 µM (inactive); with UO-31, 59.2 µM (inactive).

For the compound `Cc1coc2c1C[C@@]1(C)[C@H](CCC[C@@H]1C)[C@H]2O`, the GI50 in the assay on CAKI-1 was 44.5 µM (inactive); with COLO 205 it was 41.6 µM (inactive); in the assay with EKVX, 58.7 µM (inactive); with HCT-15 it was 36.2 µM; in the assay with HOP-92, 25.9 µM (inactive); in the assay on IGROV-1, 19.8 µM (inactive). Also, the GI50 with K562 is 28.4 µM (inactive); in the assay on NCI-H460, > 100 µM (inactive); in the assay with OVCAR-8, 35.4 µM (inactive); in the assay on RXF 393 it was 20.8 µM (inactive); in the assay with SF-268 it was 16.9 µM (inactive); with SF-539, 25.1 µM (inactive). Besides, the GI50 was 29.5 µM (inactive) in the assay with SK-MEL-28; 15.1 µM (inactive) in the assay on SK-MEL-5; > 100 µM (inactive) in the assay on SK-OV-3; 42.4 µM (inactive) with U-251; 31.8 µM (inactive) in the assay with UACC-257; 69.5 µM (inactive) in the assay with UACC-62.
